Experimental data taken from patent publication US11566057B2, “Long-acting co-agonists of the glucagon and GLP-1 receptors” (Merck Sharp & Dohme Corp., priority 2017, dated 2023).
Like-named read-outs stand apart in the source and are kept apart here. Numbered stars: 1 amine (or outer) side, 2 acyl side, 3 side chain; on linkers, the order of the positions; unused ones are H or OH. Square brackets hold non-standard residues; d marks the D form. Side chains are listed from the residue outwards. Peptide text beside a SMILES is read from it. * marks the point of attachment. C20 diacid = O=C(O)CCCCCCCCCCCCCCCCCCC(=O)*; Phe(4-CH2NH2) = NCc1ccc(C[C@H](N)C(=O)O)cc1; C18 diacid = O=C(O)CCCCCCCCCCCCCCCCC(=O)*; C16 diacid = O=C(O)CCCCCCCCCCCCCCC(=O)*; γGlu = O=C(O)[C@H](CCC(=O)[*:2])N[*:1]; Met(O2) = CS(=O)(=O)CC[C@H](N)C(=O)O; AEEA = NCCOCCOCC(=O)O; Aib = CC(C)(N)C(=O)O

Columns and labels:
human GCGR = biological target: T1, human GCGR (Homo sapiens, UniProt P47871); assay: cAMP activity assay at the Glucagon receptor (GCGR); format: cell-based; details: for hGCGR/hGLP1R (hTone): ratio of GCGR EC50 to GLP1R EC50
T1 construct: expressed in transfected cells; growth medium holds Blasticidin and Hygromycin
T1 sequence (P47871 26-477): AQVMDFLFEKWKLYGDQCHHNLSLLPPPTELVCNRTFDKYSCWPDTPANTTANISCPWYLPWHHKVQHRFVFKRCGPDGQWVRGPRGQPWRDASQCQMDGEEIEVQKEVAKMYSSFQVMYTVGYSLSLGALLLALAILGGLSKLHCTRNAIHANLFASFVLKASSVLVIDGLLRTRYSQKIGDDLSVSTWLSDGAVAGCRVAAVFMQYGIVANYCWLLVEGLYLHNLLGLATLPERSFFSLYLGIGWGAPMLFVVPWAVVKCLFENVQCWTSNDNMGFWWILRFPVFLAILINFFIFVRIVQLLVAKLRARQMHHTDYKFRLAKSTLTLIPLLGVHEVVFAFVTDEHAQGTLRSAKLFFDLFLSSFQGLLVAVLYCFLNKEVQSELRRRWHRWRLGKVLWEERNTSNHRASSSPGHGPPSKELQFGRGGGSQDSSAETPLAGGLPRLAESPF
Outline: (§1)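 Peptides serially diluted from DMSO (10 points) and added to frozen-stock cells bearing human GLP1R (10,000 cells/well) or GCGR (30,000 cells/well), 1 h at RT, dark. EC50 by four-parameter logistic fit of HitHunter cAMPXS luminescence, read following overnight RT incubation.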

human GLP1R = biological target: T2, human GLP1R (Homo sapiens, UniProt P43220); assay: cAMP activity assay at the GLP-1 receptor (GLP1R); format: cell-based
T2 construct: expressed in transfected cells; growth medium holds Blasticidin and Hygromycin
T2 sequence (P43220 24-463): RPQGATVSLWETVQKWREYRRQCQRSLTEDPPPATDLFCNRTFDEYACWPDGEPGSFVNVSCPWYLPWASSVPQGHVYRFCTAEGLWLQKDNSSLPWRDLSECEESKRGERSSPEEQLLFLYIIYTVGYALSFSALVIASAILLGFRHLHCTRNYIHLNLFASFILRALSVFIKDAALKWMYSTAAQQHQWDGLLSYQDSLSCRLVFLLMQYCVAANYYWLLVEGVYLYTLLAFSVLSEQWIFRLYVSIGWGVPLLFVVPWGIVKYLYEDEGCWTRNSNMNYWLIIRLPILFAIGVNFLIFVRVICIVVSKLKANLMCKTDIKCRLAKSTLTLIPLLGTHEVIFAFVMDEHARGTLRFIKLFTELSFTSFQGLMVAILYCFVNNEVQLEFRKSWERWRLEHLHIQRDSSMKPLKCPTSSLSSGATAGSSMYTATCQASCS
Outline: as §1

[1] = summary statement: EC50 at each of the glucagon and GLP-1 receptors, read-out: EC50 at the glucagon receptor
[2] = cells expressing human GLP1R, cAMP production, buffer with or without 20% human serum (not stated which), read-out: GLP1R EC50 human
[3] = summary statement: EC50 at each of the glucagon and GLP-1 receptors, read-out: EC50 at the GLP-1 receptor

Structure (SMILES) | hGCGR/hGLP1R (hTone) (human GCGR) | EC50 (human GCGR; [1]) | EC50 (human GLP1R; [2]) | EC50 (human GLP1R; [3]) | EC50 (human GCGR; cells expressing human GCGR, cAMP production, buffer with or without 20% human serum (not stated which), read-out: GCGR EC50 human)
CC(C)C[C@H](NC(=O)[C@H](Cc1c[nH]c2ccccc12)NC(=O)[C@H](CCCCNC(=O)COCCOCCNC(=O)COCCOCCNC(=O)CC[C@H](NC(=O)CCCCCCCCCCCCCCC(=O)O)C(=O)O)NC(=O)[C@@H](NC(=O)[C@H](Cc1ccccc1)NC(=O)[C@H](CC(=O)O)NC(=O)[C@H](CCC(N)=O)NC(=O)[C@H](C)NC(=O)[C@H](C)NC(=O)[C@H](CCCNC(=N)N)NC(=O)C(C)(C)NC(=O)[C@H](CC(=O)O)NC(=O)[C@H](CC(C)C)NC(=O)[C@H](Cc1ccc(O)cc1)NC(=O)[C@H](CCCCN)NC(=O)[C@H](CO)NC(=O)[C@H](Cc1ccc(O)cc1)NC(=O)[C@H](CC(=O)O)NC(=O)[C@H](CO)NC(=O)[C@@H](NC(=O)[C@H](Cc1ccccc1)NC(=O)[C@@H](NC(=O)CNC(=O)[C@H](CCC(N)=O)NC(=O)C(C)(C)NC(=O)[C@@H](N)Cc1c[nH]cn1)[C@@H](C)O)[C@@H](C)O)C(C)C)C(=O)N[C@@H](CCS(C)(=O)=O)C(=O)N[C@@H](CCC(=O)O)C(=O)N[C@H](C(N)=O)[C@@H](C)O [TP815] (H-H[Aib]QGTFTSDYSKYLD[Aib]RAAQDFVK([AEEA-AEEA-γGlu-C16 diacid])WL[Met(O2)]ET-NH2) | 0.7 | < 5 nM |  | < 5 nM | 
CC(C)C[C@H](NC(=O)[C@H](Cc1ccc(O)cc1)NC(=O)[C@H](CCCCN)NC(=O)[C@H](CO)NC(=O)[C@H](Cc1ccc(CNC(=O)COCCOCCNC(=O)CC[C@H](NC(=O)CCCCCCCCCCCCCCCCC(=O)O)C(=O)O)cc1)NC(=O)[C@H](CC(=O)O)NC(=O)[C@H](CO)NC(=O)[C@@H](NC(=O)[C@H](Cc1ccccc1)NC(=O)[C@@H](NC(=O)CNC(=O)[C@H](CCC(N)=O)NC(=O)C(C)(C)NC(=O)[C@@H](N)Cc1c[nH]cn1)[C@@H](C)O)[C@@H](C)O)C(=O)N[C@@H](CC(=O)O)C(=O)N[C@@H](C)C(=O)N[C@@H](CCCNC(=N)N)C(=O)N[C@@H](C)C(=O)N[C@@H](C)C(=O)N[C@@H](CCC(N)=O)C(=O)N[C@@H](CC(=O)O)C(=O)N[C@@H](Cc1ccccc1)C(=O)N[C@H](C(=O)N[C@@H](CCC(N)=O)C(=O)N[C@@H](Cc1c[nH]c2ccccc12)C(=O)N[C@@H](CC(C)C)C(=O)N[C@@H](CCS(C)(=O)=O)C(=O)N[C@@H](CC(=O)O)C(=O)N[C@H](C(N)=O)[C@@H](C)O)C(C)C [TP623] (H-H[Aib]QGTFTSD[Phe(4-CH2NH2)]([AEEA-γGlu-C18 diacid])SKYLDARAAQDFVQWL[Met(O2)]DT-NH2) | 0.5 | < 5 nM |  | < 5 nM | 
CC(C)C[C@H](NC(=O)[C@H](Cc1ccc(O)cc1)NC(=O)[C@H](CCCCN)NC(=O)[C@H](CO)NC(=O)[C@H](Cc1ccc(O)cc1)NC(=O)[C@H](CC(=O)O)NC(=O)[C@H](CO)NC(=O)[C@@H](NC(=O)[C@H](Cc1ccccc1)NC(=O)[C@@H](NC(=O)CNC(=O)[C@H](CCC(N)=O)NC(=O)C(C)(C)NC(=O)[C@@H](N)Cc1c[nH]cn1)[C@@H](C)O)[C@@H](C)O)C(=O)N[C@@H](CC(=O)O)C(=O)N[C@@H](C)C(=O)N[C@@H](CCCNC(=N)N)C(=O)N[C@@H](C)C(=O)N[C@@H](C)C(=O)N[C@@H](CCCCNC(=O)COCCOCCNC(=O)COCCOCCNC(=O)COCCOCCNC(=O)CC[C@H](NC(=O)CCCCCCCCCCCCCCCCC(=O)O)C(=O)O)C(=O)N[C@@H](CC(=O)O)C(=O)N[C@@H](Cc1ccccc1)C(=O)N[C@H](C(=O)N[C@@H](CCC(N)=O)C(=O)N[C@@H](Cc1c[nH]c2ccccc12)C(=O)N[C@@H](CC(C)C)C(=O)N[C@@H](CCS(C)(=O)=O)C(=O)N[C@@H](CC(=O)O)C(=O)N[C@H](C(N)=O)[C@@H](C)O)C(C)C [TP676] (H-H[Aib]QGTFTSDYSKYLDARAAK([AEEA-AEEA-AEEA-γGlu-C18 diacid])DFVQWL[Met(O2)]DT-NH2; N-terminus assumed) | 3.1 | < 5 nM | 0.26 nM | < 5 nM | 

Second part, the molecule after the results:

hGCGR/hGLP1R (hTone) (human GCGR) | EC50 (human GCGR; [1]) | EC50 (human GLP1R; [2]) | EC50 (human GLP1R; [3]) | EC50 (human GCGR; cells expressing human GCGR, cAMP production, buffer with or without 20% human serum (not stated which), read-out: GCGR EC50 human) | Structure (SMILES)
0.2 | < 5 nM | > 20 nM | < 5 nM |  | CC(C)C[C@H](NC(=O)[C@H](Cc1ccc(O)cc1)NC(=O)[C@H](CCCCN)NC(=O)[C@H](CO)NC(=O)[C@H](Cc1ccc(O)cc1)NC(=O)[C@H](CC(=O)O)NC(=O)[C@H](CO)NC(=O)[C@H](Cc1ccccc1)NC(=O)[C@H](Cc1ccccc1)NC(=O)[C@@H](NC(=O)CNC(=O)[C@H](CCC(N)=O)NC(=O)C(C)(C)NC(=O)[C@@H](N)Cc1c[nH]cn1)[C@@H](C)O)C(=O)N[C@@H](CC(=O)O)C(=O)N[C@@H](C)C(=O)N[C@@H](CCCNC(=N)N)C(=O)N[C@@H](C)C(=O)N[C@@H](C)C(=O)N[C@@H](CCCCNC(=O)COCCOCCNC(=O)COCCOCCNC(=O)CC[C@H](NC(=O)CCCCCCCCCCCCCCCCC(=O)O)C(=O)O)C(=O)N[C@@H](CC(=O)O)C(=O)N[C@@H](Cc1ccccc1)C(=O)N[C@H](C(=O)N[C@@H](CCC(N)=O)C(=O)N[C@@H](Cc1c[nH]c2ccccc12)C(=O)N[C@@H](CC(C)C)C(=O)N[C@@H](CCS(C)(=O)=O)C(=O)N[C@@H](CC(=O)O)C(=O)N[C@H](C(N)=O)[C@@H](C)O)C(C)C [TP595] (H-H[Aib]QGTFFSDYSKYLDARAAK([AEEA-AEEA-γGlu-C18 diacid])DFVQWL[Met(O2)]DT-NH2; N-terminus assumed)
>4.0 | < 5 nM |  | < 5 nM | 4.95 nM | CC(C)C[C@H](NC(=O)[C@H](Cc1ccc(O)cc1)NC(=O)[C@H](CCCCN)NC(=O)[C@H](CO)NC(=O)[C@H](Cc1ccc(O)cc1)NC(=O)[C@H](CC(=O)O)NC(=O)[C@H](CO)NC(=O)[C@@H](NC(=O)[C@H](Cc1ccccc1)NC(=O)[C@@H](NC(=O)CNC(=O)[C@H](CCC(N)=O)NC(=O)C(C)(C)NC(=O)[C@@H](N)Cc1c[nH]cn1)[C@@H](C)O)[C@@H](C)O)C(=O)N[C@@H](CC(=O)O)C(=O)N[C@@H](CCC(=O)O)C(=O)N[C@@H](CCCNC(=N)N)C(=O)N[C@@H](C)C(=O)N[C@@H](C)C(=O)N[C@@H](Cc1ccc(CNC(=O)COCCOCCNC(=O)COCCOCCNC(=O)CC[C@H](NC(=O)CCCCCCCCCCCCCCCCCCC(=O)O)C(=O)O)cc1)C(=O)N[C@@H](CC(=O)O)C(=O)N[C@@H](Cc1ccccc1)C(=O)N[C@H](C(=O)N[C@@H](CCC(N)=O)C(=O)N[C@@H](Cc1c[nH]c2ccccc12)C(=O)N[C@@H](CC(C)C)C(=O)N[C@@H](CC(C)C)C(=O)N[C@@H](CCCCN)C(=O)N[C@H](C(N)=O)[C@@H](C)O)C(C)C [TP586] (H-H[Aib]QGTFTSDYSKYLDERAA[Phe(4-CH2NH2)]([AEEA-AEEA-γGlu-C20 diacid])DFVQWLLKT-NH2; N-terminus assumed)
3.3 | < 5 nM |  | < 5 nM |  | CC(C)C[C@H](NC(=O)[C@H](Cc1ccc(O)cc1)NC(=O)[C@H](CCCCN)NC(=O)[C@H](CO)NC(=O)[C@H](Cc1ccc(O)cc1)NC(=O)[C@H](CC(=O)O)NC(=O)[C@H](CO)NC(=O)[C@@H](NC(=O)[C@H](Cc1ccccc1)NC(=O)[C@@H](NC(=O)CNC(=O)[C@H](CCC(N)=O)NC(=O)C(C)(C)NC(=O)[C@@H](N)Cc1c[nH]cn1)[C@@H](C)O)[C@@H](C)O)C(=O)N[C@@H](CC(=O)O)C(=O)N[C@@H](C)C(=O)N[C@@H](CCCNC(=N)N)C(=O)N[C@@H](C)C(=O)N[C@@H](C)C(=O)N[C@@H](CCC(N)=O)C(=O)N[C@@H](CC(=O)O)C(=O)N[C@@H](Cc1ccccc1)C(=O)N[C@H](C(=O)N[C@@H](Cc1ccc(CNC(=O)COCCOCCNC(=O)CC[C@H](NC(=O)CCCCCCCCCCCCCCCCC(=O)O)C(=O)O)cc1)C(=O)N[C@@H](Cc1c[nH]c2ccccc12)C(=O)N[C@@H](CC(C)C)C(=O)N[C@@H](CC(C)C)C(=O)N[C@@H](CC(=O)O)C(=O)N[C@H](C(N)=O)[C@@H](C)O)C(C)C [TP638] (H-H[Aib]QGTFTSDYSKYLDARAAQDFV[Phe(4-CH2NH2)]([AEEA-γGlu-C18 diacid])WLLDT-NH2)
0.4 | < 5 nM | 0.71 nM | < 5 nM |  | CC(C)C[C@H](NC(=O)[C@H](Cc1c[nH]c2ccccc12)NC(=O)[C@H](CCCCNC(=O)COCCOCCNC(=O)COCCOCCNC(=O)CC[C@H](NC(=O)CCCCCCCCCCCCCCCCC(=O)O)C(=O)O)NC(=O)[C@@H](NC(=O)[C@H](Cc1ccccc1)NC(=O)[C@H](CC(=O)O)NC(=O)[C@H](CCC(N)=O)NC(=O)[C@H](C)NC(=O)[C@H](C)NC(=O)[C@H](CCCNC(=N)N)NC(=O)C(C)(C)NC(=O)[C@H](CC(=O)O)NC(=O)[C@H](CC(C)C)NC(=O)[C@H](Cc1ccc(O)cc1)NC(=O)[C@H](CCCCN)NC(=O)[C@H](CO)NC(=O)[C@H](Cc1ccc(O)cc1)NC(=O)[C@H](CC(=O)O)NC(=O)[C@H](CO)NC(=O)[C@@H](NC(=O)[C@H](Cc1ccccc1)NC(=O)[C@@H](NC(=O)CNC(=O)[C@H](CCC(N)=O)NC(=O)C(C)(C)NC(=O)[C@@H](N)Cc1c[nH]cn1)[C@@H](C)O)[C@@H](C)O)C(C)C)C(=O)N[C@@H](CCS(C)(=O)=O)C(=O)N[C@@H](CCC(=O)O)C(=O)N[C@H](C(N)=O)[C@@H](C)O [TP675] (H-H[Aib]QGTFTSDYSKYLD[Aib]RAAQDFVK([AEEA-AEEA-γGlu-C18 diacid])WL[Met(O2)]ET-NH2)
